Results as given in patent US6872732B2, “Heterocyclic derivatives and medicinal use thereof” (Kyoto Pharmaceutical Industries, Ltd., priority 2001, dated 2005).
Like-named read-outs stand apart in the source and are kept apart here.

How the values were obtained:
male KK-A^y mice = experiment: Decrease of plasma glucose and triglyceride in KK-Ay mice; assay type: in vivo; conditions: non-fasting, 10 mg/kg/day orally for 4 consecutive days, 24 hours after final administration, vs control group
Method: The test compounds (compounds of Examples 2, 6, 8, 16, 26, 27 and 31) were suspended in 5% gum arabic solution and administered (10 mg/kg/day) orally to the administration group for 4 consecutive days from the next day. The 5% gum arabic solution was orally administered to the control group.

male db/db mice = conditions: for Decrease (%) in glucose level / Decrease (%) in triglyceride: plasma, 24 hours after final administration
Method: Using db/db mice genetically showing high plasma glucose, hypertriglyceridemia, insulin resistance and obesity, the pharmacological activity of the test compound of Example 6 was examined.
Blood was drawn under a non-fasting state from the tail vein of male db/db mice, the glucose level and triglyceride level of the plasma were measured using commercially available assay kits (glucose CII-test WAKO and triglyceride G-test WAKO, Wako Pure Chemical Industries, Ltd.). The mice were grouped (6 mice per group) into a control group and test compound (compound of Example 6) administration groups (3 and 10 mg/kg/day), such that the mean and standard deviation of the body weight and the plasma glucose and plasma triglyceride levels in each group were nearly the same. The test compound was suspended in 0.5% methylcellulose solution and administered orally for 2 consecutive weeks from the next day. The 0.5% methylcellulose solution was orally administered to the control group. Blood was drawn under a non-fasting state from the tail vein 24 hours after the final administration and the glucose and triglyceride levels of the plasma were measured. The decrease in the plasma glucose and triglyceride levels was calculated from the following formula.

[1] = test system: 6-week-old female Wistar rats; conditions: 30 and 100 mg/kg/day orally, 2 consecutive weeks
Method: Using 6-week-old female Wistar rats, toxicity by repeat administration was examined.
(§1) The rats were grouped (6 rats per group) into a control group and test compound (compound of Example 6) administration groups (30 and 100 mg/kg/day), such that the mean and the standard deviation of the body weight of the rats were nearly the same. The test compound was suspended in 0.5% methylcellulose solution and administered orally for 2 consecutive weeks from the next day. The 0.5% methylcellulose solution was orally administered to the control group. The rats were fasted for 16 hr from the last day of administration, anesthetized by intraperitoneal administration of pentobarbital sodium (50 mg/kg) 24 hr after the final administration and the blood was drawn. Using EDTA-added blood, hematocrit value and erythrocyte count were measured, and using serum, AST (GOT) and ALT (GPT) were measured. In addition, the total blood volume was calculated. The white fat around the uterus, and the liver and heart were removed and wet weights thereof were measured.

6-week-old male SD rats = conditions: 30 and 100 mg/kg/day orally, 4 consecutive weeks
Method: Using 6-week-old male SD rats, toxicity by repeat administration was examined.
as §1, with “for 4” for “for 2”, “the epididymides,” for “the uterus,”

[2] = 3 and 10 mg/kg/day orally, 2 weeks
[3] = 3 mg/kg/day orally for 2 consecutive weeks
[4] = 10 mg/kg/day orally for 2 consecutive weeks

Question: `CCCCC=CC(=O)N1Cc2cc(OCCc3nc(-c4ccccc4)oc3C)ccc2C[C@H]1C(=O)O` [Example 2, 2-(2-heptenoyl)-7-[2-(5-methyl-2-phenyloxazol-4-yl)ethoxy]-1,2,3,4-tetrahydroisoquinoline-(3S)-carboxylic acid] was tested. Which “Decrease (%) in glucose level” value (male KK-A^y mice) did it give?
Answer: The value was 46.8%.

Question: What about the “Decrease (%) in triglyceride” value (male KK-A^y mice) of the same compound?
Answer: The value was 44.9%.

Question: Which results are given for `CC=CC=CC(=O)N1Cc2cc(OCCc3nc(-c4ccccc4)oc3C)ccc2C[C@H]1C(=O)O` [Example 6]?
Answer: Decrease (%) in glucose level (male KK-A^y mice): 45.9%; Decrease (%) in triglyceride (male KK-A^y mice): 45.7%; plasma glucose level after treatment (male db/db mice; [2]): almost the normal levels; plasma triglyceride level after treatment (male db/db mice; [2]): almost the normal levels; Decrease (%) in glucose level (male db/db mice; [3]): 59.9%; Decrease (%) in triglyceride (male db/db mice; [3]): 77.1%; Decrease (%) in glucose level (male db/db mice; [4]): 64.4%; Decrease (%) in triglyceride (male db/db mice; [4]): 78.8%; body weight, difference from control group [1]: no significant difference; erythrocyte count, difference from control group [1]: no significant difference; hematocrit value, difference from control group [1]: no significant difference; total blood volume, difference from control group [1]: no significant difference; weight of the heart, difference from control group [1]: no significant difference; weight of the liver, difference from control group [1]: no significant difference; weight of white fat around the uterus, difference from control group [1]: no significant difference; ALT (GPT), difference from control group ([1]; serum): no significant difference; AST (GOT), difference from control group ([1]; serum): no significant difference; body weight, difference from control group (6-week-old male SD rats): no significant difference; erythrocyte count, difference from control group (6-week-old male SD rats): no significant difference; hematocrit value, difference from control group (6-week-old male SD rats): no significant difference; total blood volume, difference from control group (6-week-old male SD rats): no significant difference; weight of the heart, difference from control group (6-week-old male SD rats): no significant difference; weight of the liver, difference from control group (6-week-old male SD rats): no significant difference; weight of white fat around the epididymides, difference from control group (6-week-old male SD rats): no significant difference; ALT (GPT), difference from control group (6-week-old male SD rats; serum): no significant difference; AST (GOT), difference from control group (6-week-old male SD rats; serum): no significant difference

Question: What does the source list for `CCCC#CC(=O)N1Cc2cc(OCCc3nc(-c4ccccc4)oc3C)ccc2C[C@H]1C(=O)O` [Example 8, 2-(2-hexynoyl)-7-[2-(5-methyl-2-phenyloxazol-4-yl)ethoxy]-1,2,3,4-tetrahydroisoquinoline-(3S)-carboxylic acid]?
Answer: Decrease (%) in glucose level (male KK-A^y mice): 46.1%; Decrease (%) in triglyceride (male KK-A^y mice): 55.2%

Question: What does the source list for `CC(C)(C)N.CC=CC=CC(=O)N1Cc2cc(OCCc3nc(-c4ccc(C(C)(C)C)cc4)oc3C)ccc2C[C@H]1C(=O)O` [Example 16, tert-butylamine 7-{2-[2-(4-tert-butylphenyl)-5-methyloxazol-4-yl]ethoxy}-2-(2,4-hexadienoyl)-1,2,3,4-tetrahydroisoquinoline-(3S)-carboxylate]?
Answer: Decrease (%) in glucose level (male KK-A^y mice): 60.9%; Decrease (%) in triglyceride (male KK-A^y mice): 73.4%

Question: What does the source list for `CC(C)(C)N.CC=CC=CC(=O)N1Cc2cc(OCCc3nc(-c4ccc(OCc5ccccc5)cc4)oc3C)ccc2C[C@H]1C(=O)O` [Example 26, tert-butylamine 7-{2-[2-(4-benzyloxyphenyl)-5-methyloxazol-4-yl]ethoxy}-2-(2,4-hexadienoyl)-1,2,3,4-tetrahydroisoquinoline-(3S)-carboxylate]?
Answer: Decrease (%) in glucose level (male KK-A^y mice): 43.7%; Decrease (%) in triglyceride (male KK-A^y mice): 67.8%

Question: Which “Decrease (%) in glucose level” value (male KK-A^y mice) does the source give for `CC(C)(C)N.CC=CC=CC(=O)N1Cc2cc(OCCc3nc(-c4ccc(C(C)C)cc4)oc3C)ccc2C[C@H]1C(=O)O` [Example 27, tert-butylamine 2-(2,4-hexadienoyl)-7-{2-[2-(4-isopropylphenyl)-5-methyloxazol-4-yl]ethoxy}-1,2,3,4-tetrahydroisoquinoline-(3S)-carboxylate] here?
Answer: The value was 55.8%.

Question: And the “Decrease (%) in triglyceride” value (male KK-A^y mice)?
Answer: Its value is 73.8%.

Question: Which “Decrease (%) in glucose level” value (male KK-A^y mice) does the source give for `CC(C)(C)N.CC=CC=CC(=O)N1Cc2cc(OCCc3nc(-c4ccc(N(C)C)cc4)oc3C)ccc2C[C@H]1C(=O)O` [Example 31, tert-butylamine 7-{2-[2-(4-dimethylaminophenyl)-5-methyloxazol-4-yl]ethoxy}-2-(2,4-hexadienoyl)-1,2,3,4-tetrahydroisoquinoline-(3S)-carboxylate] here?
Answer: Its value is 39.4%.

Question: What about the “Decrease (%) in triglyceride” value (male KK-A^y mice) of the same compound?
Answer: The value was 20.1%.
